From patent publication US20200264191A1, “METHODS AND KITS FOR DIAGNOSIS OF FAMILIAL MEDITERRANEAN FEVER” (INSERM (Institut National de la Santé et de la Recherche …, priority 2017, published 2020)

Columns and labels:
[1] = test system: Primary monocytes from HD or FMF patients; assay: IL-1β release by primary monocytes (ELISA of supernatant); settings: LPS-primed; Ro 31-8220 100 μM or ATP 2.5 mM, 1.5 h
Description: Blood was drawn in heparin-coated tubes and kept at room temperature overnight. The next day, peripheral blood mononuclear cells (PBMCs) were isolated by density-gradient centrifugation using Lymphocyte Separation Medium (Eurobio) [23]. Monocytes were isolated from PBMCs by magnetic selection using CD14 MicroBeads (Miltenyi Biotec) [24] and the AutoMACS Pro Separator (Miltenyi Biotec) following manufacturer's instructions. Monocytes were enumerated in the presence of a viability marker (propidium iodide, 10 μg/ml) by flow cytometry (BD Accuri C6 Flow Cytometer®) [25].
When indicated, monocytes were incubated for 3 hours in the presence of LPS (10 ng/ml, Invivogen). […] Following the incubation, cells were centrifuged and supernatants were collected.
Levels of IL-1β in monocyte supernatants were quantified by ELISA (R&D Systems). […] Three technical replicates per conditions were done.

PKCγ = PKCγ (Homo sapiens, UniProt P05129); settings: cell-free assays where stated; cited from earlier work
PKCβI = PKCβI (Homo sapiens, UniProt P05771); settings: cell-free assays where stated; read-out: IC50 for PKCβI (PKCβ1); cited from earlier work
PKCβI, sequence (P05771 whole entry): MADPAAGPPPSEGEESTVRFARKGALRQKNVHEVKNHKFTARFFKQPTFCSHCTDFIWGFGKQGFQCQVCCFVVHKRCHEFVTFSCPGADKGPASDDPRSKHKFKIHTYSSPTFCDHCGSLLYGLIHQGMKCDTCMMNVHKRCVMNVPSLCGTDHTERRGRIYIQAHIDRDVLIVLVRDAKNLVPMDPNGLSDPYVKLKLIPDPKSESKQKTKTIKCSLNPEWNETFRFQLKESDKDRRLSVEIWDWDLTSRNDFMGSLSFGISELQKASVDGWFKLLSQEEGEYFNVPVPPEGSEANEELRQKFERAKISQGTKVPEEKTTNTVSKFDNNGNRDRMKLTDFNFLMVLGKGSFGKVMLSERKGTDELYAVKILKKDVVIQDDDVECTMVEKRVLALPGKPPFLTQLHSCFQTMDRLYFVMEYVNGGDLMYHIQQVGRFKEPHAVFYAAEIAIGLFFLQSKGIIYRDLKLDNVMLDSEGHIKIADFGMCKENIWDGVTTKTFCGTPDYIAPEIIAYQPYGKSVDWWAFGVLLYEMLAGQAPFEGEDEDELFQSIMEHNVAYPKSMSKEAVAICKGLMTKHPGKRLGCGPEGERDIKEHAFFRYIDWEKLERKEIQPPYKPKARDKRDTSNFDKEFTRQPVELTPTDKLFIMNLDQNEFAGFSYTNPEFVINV

PKC = settings: cited from earlier work
PKCα = PKCα (Homo sapiens, UniProt P17252); settings: cell-free assays where stated; cited from earlier work
PKCβII = PKCβII (Homo sapiens, UniProt P05771); settings: cell-free assays where stated; read-out: IC50 for PKCβII (PKCβ2); cited from earlier work
PKCβII, sequence (P05771 1-673 isoform P05771-2): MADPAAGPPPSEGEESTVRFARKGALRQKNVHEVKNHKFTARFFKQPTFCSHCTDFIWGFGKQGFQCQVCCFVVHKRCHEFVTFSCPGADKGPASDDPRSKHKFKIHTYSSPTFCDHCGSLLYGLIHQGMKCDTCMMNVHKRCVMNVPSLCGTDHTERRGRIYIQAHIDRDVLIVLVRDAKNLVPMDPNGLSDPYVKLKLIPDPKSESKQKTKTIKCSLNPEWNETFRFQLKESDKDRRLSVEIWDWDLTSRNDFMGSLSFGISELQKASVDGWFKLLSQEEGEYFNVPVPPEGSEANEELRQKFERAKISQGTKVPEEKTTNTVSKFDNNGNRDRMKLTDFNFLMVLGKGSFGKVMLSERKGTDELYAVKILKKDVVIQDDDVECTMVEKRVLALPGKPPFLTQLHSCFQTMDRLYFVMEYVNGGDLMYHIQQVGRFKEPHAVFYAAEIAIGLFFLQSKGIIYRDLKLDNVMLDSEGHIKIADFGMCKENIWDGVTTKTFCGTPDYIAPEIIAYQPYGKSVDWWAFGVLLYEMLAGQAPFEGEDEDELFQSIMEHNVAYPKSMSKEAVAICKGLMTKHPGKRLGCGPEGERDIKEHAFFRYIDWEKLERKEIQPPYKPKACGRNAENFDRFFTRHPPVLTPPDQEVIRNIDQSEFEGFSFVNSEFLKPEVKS

PKA = settings: cited from earlier work
[2] = test system: apamin-sensitive K+ channels; settings: cited from earlier work
PKC (Rat brain) = settings: cited from earlier work
PKCβ = PKCβ (Homo sapiens, UniProt P05771); settings: cell-free assays where stated; cited from earlier work
PKCβ, sequence (P05771 whole entry, species assumed): as the sequence (P05771 whole entry) above

PKCζ = biological target: T1, PKCζ (Homo sapiens, UniProt Q05513); settings: cited from earlier work
T1 sequence (Q05513 1-592): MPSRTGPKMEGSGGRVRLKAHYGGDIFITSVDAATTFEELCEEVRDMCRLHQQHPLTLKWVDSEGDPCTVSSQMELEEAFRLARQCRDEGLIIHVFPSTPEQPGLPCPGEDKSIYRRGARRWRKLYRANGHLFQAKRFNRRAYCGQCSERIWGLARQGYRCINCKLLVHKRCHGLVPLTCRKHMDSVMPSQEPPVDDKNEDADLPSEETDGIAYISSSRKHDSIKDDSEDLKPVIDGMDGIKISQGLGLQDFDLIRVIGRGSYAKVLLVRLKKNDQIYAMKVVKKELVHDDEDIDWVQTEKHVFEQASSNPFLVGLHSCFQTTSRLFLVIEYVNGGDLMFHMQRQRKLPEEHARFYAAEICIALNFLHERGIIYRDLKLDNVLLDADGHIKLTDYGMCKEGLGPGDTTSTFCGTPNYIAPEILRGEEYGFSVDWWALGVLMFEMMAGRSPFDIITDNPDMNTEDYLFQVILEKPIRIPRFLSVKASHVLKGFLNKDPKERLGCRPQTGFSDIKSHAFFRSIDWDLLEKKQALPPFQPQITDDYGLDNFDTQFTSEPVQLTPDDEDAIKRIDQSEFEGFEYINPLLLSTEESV

PKCδ = PKCδ (Homo sapiens, UniProt Q05655); settings: cell-free assays where stated; cited from earlier work
PKCμ = biological target: T2, PKCμ (Homo sapiens, UniProt Q15139); settings: cited from earlier work
T2 sequence (Q15139 1-912): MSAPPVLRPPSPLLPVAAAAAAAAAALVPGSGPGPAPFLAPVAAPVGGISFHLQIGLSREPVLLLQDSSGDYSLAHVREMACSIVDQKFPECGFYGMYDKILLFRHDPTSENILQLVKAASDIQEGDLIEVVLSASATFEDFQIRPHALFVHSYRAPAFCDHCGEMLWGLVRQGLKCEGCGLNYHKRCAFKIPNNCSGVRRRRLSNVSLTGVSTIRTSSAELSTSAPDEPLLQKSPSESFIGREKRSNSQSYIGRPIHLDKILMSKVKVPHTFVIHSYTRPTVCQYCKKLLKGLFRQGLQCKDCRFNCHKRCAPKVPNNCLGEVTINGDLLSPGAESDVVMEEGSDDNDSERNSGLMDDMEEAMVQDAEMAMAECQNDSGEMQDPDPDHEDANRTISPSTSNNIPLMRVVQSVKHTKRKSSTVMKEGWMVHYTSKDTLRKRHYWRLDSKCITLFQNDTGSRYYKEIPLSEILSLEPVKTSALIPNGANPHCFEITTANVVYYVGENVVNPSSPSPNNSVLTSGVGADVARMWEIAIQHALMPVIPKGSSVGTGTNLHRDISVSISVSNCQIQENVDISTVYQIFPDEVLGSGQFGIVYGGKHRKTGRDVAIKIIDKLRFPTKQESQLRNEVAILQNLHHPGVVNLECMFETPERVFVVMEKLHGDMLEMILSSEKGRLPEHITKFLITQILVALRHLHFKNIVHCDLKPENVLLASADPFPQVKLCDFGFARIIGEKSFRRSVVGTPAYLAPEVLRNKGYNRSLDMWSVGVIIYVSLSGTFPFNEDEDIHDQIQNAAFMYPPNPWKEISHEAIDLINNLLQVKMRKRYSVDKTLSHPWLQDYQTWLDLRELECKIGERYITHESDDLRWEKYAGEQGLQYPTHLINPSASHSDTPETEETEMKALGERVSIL

PI3K = settings: cited from earlier work
PKN2 = PKN2 (Homo sapiens, UniProt Q16513); settings: cited from earlier work
PKN2, sequence (Q16513 whole entry): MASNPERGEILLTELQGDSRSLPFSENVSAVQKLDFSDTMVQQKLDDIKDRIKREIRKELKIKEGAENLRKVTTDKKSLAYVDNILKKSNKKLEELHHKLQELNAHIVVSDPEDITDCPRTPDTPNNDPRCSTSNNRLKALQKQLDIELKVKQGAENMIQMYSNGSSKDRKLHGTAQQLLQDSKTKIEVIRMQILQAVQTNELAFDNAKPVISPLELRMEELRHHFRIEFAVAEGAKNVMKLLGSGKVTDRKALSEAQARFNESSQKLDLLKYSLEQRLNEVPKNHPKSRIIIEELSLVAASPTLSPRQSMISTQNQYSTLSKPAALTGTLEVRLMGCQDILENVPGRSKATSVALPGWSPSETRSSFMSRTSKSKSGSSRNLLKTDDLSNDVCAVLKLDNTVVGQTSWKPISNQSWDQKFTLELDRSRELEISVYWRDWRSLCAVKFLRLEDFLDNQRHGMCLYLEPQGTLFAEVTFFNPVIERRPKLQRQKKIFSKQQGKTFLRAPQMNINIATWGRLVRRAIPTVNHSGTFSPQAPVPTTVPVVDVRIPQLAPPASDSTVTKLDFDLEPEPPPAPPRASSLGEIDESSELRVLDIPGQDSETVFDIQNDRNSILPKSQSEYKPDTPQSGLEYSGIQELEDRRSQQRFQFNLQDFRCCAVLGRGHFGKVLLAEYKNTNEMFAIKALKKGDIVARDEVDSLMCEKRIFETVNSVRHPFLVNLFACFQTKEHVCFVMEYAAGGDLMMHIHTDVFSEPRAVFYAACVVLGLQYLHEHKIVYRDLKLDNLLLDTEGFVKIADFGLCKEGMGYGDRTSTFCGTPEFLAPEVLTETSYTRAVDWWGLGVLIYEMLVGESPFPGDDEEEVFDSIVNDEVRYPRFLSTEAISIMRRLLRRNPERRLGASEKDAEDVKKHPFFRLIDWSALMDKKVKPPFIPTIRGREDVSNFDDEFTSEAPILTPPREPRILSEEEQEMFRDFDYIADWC

PKCε = biological target: T3, PKCε (Homo sapiens, UniProt Q02156); settings: cell-free assays where stated; cited from earlier work
T3 sequence (Q02156 1-737): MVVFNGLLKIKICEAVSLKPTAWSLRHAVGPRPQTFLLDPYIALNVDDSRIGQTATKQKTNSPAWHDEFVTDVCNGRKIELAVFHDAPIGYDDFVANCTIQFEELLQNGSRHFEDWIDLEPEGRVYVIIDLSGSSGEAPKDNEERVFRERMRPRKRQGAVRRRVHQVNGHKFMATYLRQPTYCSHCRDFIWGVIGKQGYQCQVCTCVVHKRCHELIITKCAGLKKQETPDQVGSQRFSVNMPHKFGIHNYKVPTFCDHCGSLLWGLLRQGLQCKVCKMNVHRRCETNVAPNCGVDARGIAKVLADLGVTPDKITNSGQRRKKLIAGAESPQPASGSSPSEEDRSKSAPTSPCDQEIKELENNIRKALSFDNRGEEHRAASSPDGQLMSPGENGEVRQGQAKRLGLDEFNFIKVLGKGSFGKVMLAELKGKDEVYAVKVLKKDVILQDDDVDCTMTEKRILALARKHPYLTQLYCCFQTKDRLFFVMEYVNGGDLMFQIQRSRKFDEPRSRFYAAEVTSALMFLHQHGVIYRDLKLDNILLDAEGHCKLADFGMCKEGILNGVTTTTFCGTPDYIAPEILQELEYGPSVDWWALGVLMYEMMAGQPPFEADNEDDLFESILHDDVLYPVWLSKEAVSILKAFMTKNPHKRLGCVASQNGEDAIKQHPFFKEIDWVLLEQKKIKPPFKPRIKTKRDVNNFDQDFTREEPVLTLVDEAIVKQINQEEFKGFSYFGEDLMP

PKCθ = PKCθ (Homo sapiens, UniProt Q04759); settings: cell-free assay; cited from earlier work
PKCθ, sequence (Q04759 whole entry): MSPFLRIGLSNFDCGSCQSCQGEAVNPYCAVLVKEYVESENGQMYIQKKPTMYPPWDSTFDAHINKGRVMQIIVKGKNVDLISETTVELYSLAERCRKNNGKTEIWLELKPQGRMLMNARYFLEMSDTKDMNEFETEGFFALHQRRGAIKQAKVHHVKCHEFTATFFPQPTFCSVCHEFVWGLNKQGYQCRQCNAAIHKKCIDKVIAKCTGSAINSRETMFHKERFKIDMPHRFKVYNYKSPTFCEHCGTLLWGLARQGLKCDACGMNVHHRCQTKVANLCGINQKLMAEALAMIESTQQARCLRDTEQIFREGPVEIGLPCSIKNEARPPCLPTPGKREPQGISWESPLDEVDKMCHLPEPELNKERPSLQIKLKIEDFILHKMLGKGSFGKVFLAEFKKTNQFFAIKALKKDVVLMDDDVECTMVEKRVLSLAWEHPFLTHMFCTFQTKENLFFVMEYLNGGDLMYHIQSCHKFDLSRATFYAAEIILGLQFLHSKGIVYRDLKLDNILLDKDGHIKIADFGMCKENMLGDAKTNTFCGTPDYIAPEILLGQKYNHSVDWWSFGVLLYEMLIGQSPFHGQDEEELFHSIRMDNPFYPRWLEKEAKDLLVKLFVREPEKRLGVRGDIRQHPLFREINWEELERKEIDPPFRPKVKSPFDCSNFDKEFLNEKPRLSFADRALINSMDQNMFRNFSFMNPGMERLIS

[3] = test system: Primary monocytes from HD or FMF patients; assay: Monocyte cell death by propidium iodide incorporation; assay type: cell-based, human; settings: for difference in AUC of cell death kinetics between FMF and HD monocytes (in words): UCN-01 12.5 μM unprimed, or LPS then nigericin 5 μM
Description: Propidium iodide incorporation was monitored every 5 minutes from 5 minutes to 105 minutes post-UCN-01/nigericin stimulation using a fluorimeter. Cell death was calculated using TX-100-treated cells (100% cell death) and normalized cell death kinetics are presented (A, D). Each symbol corresponds to the average values of the normalized cell death of monocytes from 17 HD and […]. Mean and standard deviations are shown at each time point. […] (C-G) The time post-treatment needed to reach 20% monocytes cell death was calculated from each HD (n=17) and FMF patients (n=13) cell death kinetics. […] The bar represents the mean.
Cell death was determined by measuring propidium iodide incorporation/fluorescence at 1 h30 post stauroporin addition. […] The bar represents the mean. Cell death was normalized using TX-100-treated cells (100% cell death). With a cell death threshold set at 10% (horizontal line), this assay discriminates healthy donors from FMF patients.
Three technical replicates per conditions were done.

[4] = LPS 10 ng/ml 3 h, then nigericin 5 μM

Nc1ncnc2c1ncn2[C@@H]1O[C@H](COP(=O)(O)OP(=O)(O)OP(=O)(O)O)[C@@H](O)[C@H]1O [ATP]
difference in IL-1β release between FMF and HD monocytes (in words) [1]: did not observe any difference

CN(C)CCCn1cc(C2=C(c3c[nH]c4ccccc34)C(=O)NC2=O)c2ccccc21 [Bisindolylmaleimide I]
IC50 (PKCγ): 20 nM | IC50 (PKCβI): 17 nM | selectivity for PKC as compared to EGFR, PDGFR and insulin receptor (PKC): more than 3000 fold | IC50 (PKCα): 20 nM | IC50 (PKCβII): 16 nM

O=c1ccc2ccc(O)c(O)c2o1 [Daphnetin]
IC50 (PKC): 25000 nM | IC50 (PKA): 9330 nM

Cc1cc(N)c2ccccc2[n+]1CCCCCCCCCC[n+]1c(C)cc(N)c2ccccc21 [Dequalinium Chloride]
IC50 [2]: 1100 nM | IC50 (PKC): 7000 to 18000 nM

Cn1c2ccccc2c2c3c(c4c5ccccc5n(CCC#N)c4c21)CNC3=O [Go6976]
IC50 (PKC (Rat brain)): 7.9 nM

COc1ccc2c(c1)c(C1=C(c3c[nH]c4ccccc34)C(=O)NC1=O)cn2CCCN(C)C [Go 6983]
IC50 (PKCγ): 6 nM | IC50 (PKCβ): 7 nM | activity on PKCζ (in words) (PKCζ): less potent | IC50 (PKCδ): 10 nM | IC50 (PKCα): 7 nM | activity on PKCμ (in words) (PKCμ): inactive

O=c1c(O)c(-c2ccc(O)c(O)c2)oc2cc(O)cc(O)c12 [Quercetin]
IC50 (PI3K): 2400 to 5400 nM

CS(=O)(=O)O.Cn1cc(C2=C(c3cn(CCCSC(=N)N)c4ccccc34)C(=O)NC2=O)c2ccccc21 [Ro 31-8220 Mesylate]
efficacy to inhibit PKN2 (in words) (PKN2): low efficacy | IC50 (PKCγ): 27 nM | IC50 (PKCβI): 24 nM | IC50 (PKCα): 5 nM | IC50 (PKCβII): 14 nM | IC50 (PKCε): 24 nM | difference in IL-1β release between FMF and HD monocytes (in words) [1]: same trends

CN1CCN(c2nc(C3=C(c4c[nH]c5ccccc45)C(=O)NC3=O)c3ccccc3n2)CC1 [Sotrastaurin]
Ki (PKCθ): 0.22 nM | activity on PKCζ (in words) (PKCζ): inactive

CN[C@@H]1C[C@H]2O[C@@](C)([C@@H]1OC)n1c3ccccc3c3c4c(c5c6ccccc6n2c5c31)C(=O)N[C@H]4O [UCN-01, 7-hydroxystaurosporine]
difference in AUC of cell death kinetics between FMF and HD monocytes (in words) [3]: statistical difference | time to reach 20% cell death, FMF patients' monocytes ([3]; UCN-01 12.5 μM, no priming): less than 50 minutes | IC50 (PKCε): 530 nM

CO[C@@H]1C[C@@H](C[C@H]2CC[C@H](C)[C@H]([C@@H](C)C(=O)O)O2)O[C@]2(O[C@](C)([C@H]3CC[C@@](C)([C@@H]4O[C@@H]([C@H]5O[C@@](O)(CO)[C@H](C)C[C@@H]5C)C[C@@H]4C)O3)C[C@H]2C)[C@@H]1C [nigericin]
time to reach 20% cell death, FMF patients' monocytes [3, 4]: 74 min | time to reach 20% cell death, monocytes from healthy controls [3, 4]: 72 min | difference in AUC of cell death kinetics between FMF and HD monocytes (in words) [3]: did not demonstrate any statistical difference
